From patent US20250049776A1, “AUTOPHAGY INDUCING COMPOUNDS AND USES THEREOF, IN PARTICULAR FOR A SYSTEMIC TREATMENT OF DISEASES AND CONDITIONS” (Samsara Therapeutics Inc., priority 2021, published 2025)
Counter-ions that a name gives are not always drawn.

Tested on: Human osteosarcoma U20S cells
Assay: Assay to measure lysosome and autolysosome formation (acidic vesicle formation, LysoView/LysoTracker staining)
Type: cell-based
Conditions: for activation at 0.8 µM: Homo sapiens, U2OS cells, concentration of 0.8 μM, read-out: Activity (percentage increase in acidic vesicle formation over the DMSO-treated control), Table 2; for acidic vesicle formation relative to a DMSO-treated control / increase in acidic vesicle formation: U20S cells; for acidic vesicle formation relative to a DMSO-treated control: concentration of 10 μM, 24 hours; for increase in acidic vesicle formation: relative to DMSO-treated control (10 μM)
Description: Lysosomes play a fundamental role in the autophagic pathway by fusing with autophagosomes and creating ‘autolysosomes’ in order to digest their contents. Stimulation of lysosome and autolysosome formation by a compound is indicative of a stimulation of autophagy. The ability of compounds to stimulate lysosome and autolysosome formation, and thus autophagy, in live cells was assessed via fluorescent microscopy using various fluorescent stains for labelling and tracking acidic organelles (including lysosomes and autolysosomes) such as: LysoView™ 650 (70059 and 70059-T, Biotium), LysoViewTM633 (70058 and 70058-T, Biotium) and LysoTracker™ Deep Red (L12492, ThermoFisher Scientific). The cellular phenotype was quantitatively assessed for the induction of acidic vesicle formation and compared to a non-treated control, thus providing a measure of the ability of the compound under investigation to stimulate autophagy.
Representative procedure using LysoView™633 dye or LysoTracker™ Deep Red dye: Human osteosarcoma U20S cells (40,000 cells/well) were seeded in a 24 well glass bottom plate (Sensoplate, Greiner Bio-One) and were incubated overnight in a humidified atmosphere at 37° C. and 5% CO2. Cells were grown in DMEM (Gibco) supplemented with 10% Fetal Bovine Serum (FBS) and 100 units/ml penicillin and 100 μg/ml streptomycin (Invitrogen). After the attachment period, cells were treated with different compounds of interest (at various concentrations in DMSO) or DMSO (non-treated control) in cell culture medium and were incubated for 24 hours. Compound-containing medium was removed and cells were incubated with pre-warmed cell culture medium containing 1× LysoView™ 633 (70058 and 70058-T, Biotium) or 50 nM LysoTracker™ Deep Red (L12492, ThermoFisher Scientific) for 45 minutes at 37° C. Finally, cell nuclei were stained for 10 minutes using Hoechst 33342 (1 μg/mL) and then the medium was replaced with fresh medium. The 24 well plate was then fitted into a heated stage on the microscope and cells maintained at 37° C. Images were captured using appropriate filter set for Cy5 and DAPI detection with the EVOS M7000 Microscope (ThermoFisher Scientific). The cellular phenotype was visually assessed for the induction of acidic vesicle formation relative to the non-treated control; multiple images were acquired and analyzed using ImageJ or Cell Profiler.

SMILES: NCCCNC(=O)c1csc(-c2cnn(-c3ccccc3)c2)n1 [Compound 159, N-(3-aminopropyl)-2-(1-phenyl-1H-pyrazol-4-yl)-1,3-thiazole-4-carboxamide]
- activation at 0.8 µM: 30 to 50%

SMILES: NC[C@H]1CCCN1C(=O)c1csc(-c2cnn(-c3ccc(C(F)(F)F)cc3)c2)n1 [Compound 76, 1-[(2R)-1-(2-{1-[4-(trifluoromethyl)phenyl]-1H-pyrazol-4-yl}-1,3-thiazole-4-carbonyl)pyrrolidin-2-yl]methanamine]
- activation at 0.8 µM: 10 to 30%

SMILES: CCCN(C(=O)c1csc(-c2cnn(-c3ccccc3Cl)c2)n1)[C@H]1CCNC1 [Compound 89, 2-[1-(2-chlorophenyl)-1H-pyrazol-4-yl]-N-propyl-N-[(3S)-pyrrolidin-3-yl]-1,3-thiazole-4-carboxamide]
- activation at 0.8 µM: 10 to 30%

SMILES: CCCN(C(=O)c1csc(-c2cnn(-c3ccccc3)c2)c1)[C@H]1CCNC1 [Compound 42, 5-(1-phenyl-1H-pyrazol-4-yl)-N-propyl-N-[(3S)-pyrrolidin-3-yl]thiophene-3-carboxamide]
- activation at 0.8 µM: 10 to 30%

SMILES: CC(C)N(C(=O)c1csc(-c2cnn(-c3ccccc3C(F)(F)F)c2)n1)C1CCNCC1 [Compound 47, N-(piperidin-4-yl)-N-(propan-2-yl)-2-{1-[2-(trifluoromethyl)phenyl]-1H-pyrazol-4-yl}-1,3-thiazole-4-carboxamide]
- activation at 0.8 µM: 30 to 50%

SMILES: CC(C)N(C(=O)c1csc(-c2cnn(-c3ccccn3)c2)n1)C1CCNCC1 [Compound 307, N-(piperidin-4-yl)-N-(propan-2-yl)-2-[1-(pyridin-2-yl)-1H-pyrazol-4-yl]-1,3-thiazole-4-carboxamide]
- activation at 0.8 µM: 50 to 100%

SMILES: CC(C)N(C(=O)c1csc(-c2cnn(-c3ccncc3)c2)n1)C1CCNCC1 [Compound 322, N-(piperidin-4-yl)-N-(propan-2-yl)-2-[1-(pyridin-4-yl)-1H-pyrazol-4-yl]-1,3-thiazole-4-carboxamide]
- acidic vesicle formation relative to a DMSO-treated control: only a slight increase
- increase in acidic vesicle formation: only a slight increase

SMILES: O=C(NCC1CCNCC1)c1csc(-c2cnn(-c3ccccc3)c2)n1 [Compound 177, 2-(1-phenyl-1H-pyrazol-4-yl)-N-[(piperidin-4-yl)methyl]-1,3-thiazole-4-carboxamide]
- activation at 0.8 µM: 10 to 30%

SMILES: CCCN(C(=O)c1csc(-c2cnn(-c3ccccn3)c2)n1)[C@@H]1CCNC1 [Compound 44, N-propyl-2-[1-(pyridin-2-yl)-1H-pyrazol-4-yl]-N-[(3R)-pyrrolidin-3-yl]-1,3-thiazole-4-carboxamide]
- activation at 0.8 µM: 10 to 30%

SMILES: O=C(NC1CNC1)c1csc(-c2cnn(-c3ccccc3)c2)n1 [Compound 180, N-(azetidin-3-yl)-2-(1-phenyl-1H-pyrazol-4-yl)-1,3-thiazole-4-carboxamide]
- activation at 0.8 µM: 30 to 50%

SMILES: CCCN(C(=O)c1csc(-c2cnn(-c3ccccc3F)c2)n1)[C@@H]1CCNC1 [Compound 97, 2-[1-(2-fluorophenyl)-1H-pyrazol-4-yl]-N-propyl-N-[(3R)-pyrrolidin-3-yl]-1,3-thiazole-4-carboxamide]
- activation at 0.8 µM: 30 to 50%

SMILES: CCCN(C(=O)c1csc(-c2cnn(-c3ccccc3)c2)c1)[C@@H]1CCNC1 [Compound 36, 5-(1-phenyl-1H-pyrazol-4-yl)-N-propyl-N-[(3R)-pyrrolidin-3-yl]thiophene-3-carboxamide]
- activation at 0.8 µM: 10 to 30%

SMILES: NC[C@H]1CCCN1C(=O)c1ccc(-c2cnn(-c3ccccc3)c2)o1 [Compound 11, 1-[(2R)-1-[5-(1-phenyl-1H-pyrazol-4-yl)furan-2-carbonyl]pyrrolidin-2-yl]methanamine]
- activation at 0.8 µM: 10 to 30%

SMILES: CCCN(C(=O)c1csc(-c2cnn(-c3ccccn3)c2)n1)[C@H]1CCNC1 [Compound 43, N-propyl-2-[1-(pyridin-2-yl)-1H-pyrazol-4-yl]-N-[(3S)-pyrrolidin-3-yl]-1,3-thiazole-4-carboxamide]
- activation at 0.8 µM: 10 to 30%

SMILES: CC(C)N(C(=O)c1csc(-c2cnn(-c3cccnn3)c2)n1)C1CCNCC1 [Compound 323, N-(piperidin-4-yl)-N-(propan-2-yl)-2-[1-(pyridazin-3-yl)-1H-pyrazol-4-yl]-1,3-thiazole-4-carboxamide]
- activation at 0.8 µM: 30 to 50%
- increase in acidic vesicle formation: only a slight increase

SMILES: O=C(NC[C@@H]1CNCCO1)c1csc(-c2cnn(-c3ccccc3)c2)n1 [Compound 107, N-{[(2S)-morpholin-2-yl]methyl}-2-(1-phenyl-1H-pyrazol-4-yl)-1,3-thiazole-4-carboxamide]
- activation at 0.8 µM: 10 to 30%

SMILES: CC(C)N(C(=O)c1csc(-c2cnn(-c3ccccc3)c2)n1)C1C[C@H]2C[C@@H]1CN2 (stereo partly drawn) [Compound 316, N-[(1R,4R)-2-azabicyclo[2.2.1]heptan-5-yl]-2-(1-phenyl-1H-pyrazol-4-yl)-N-(propan-2-yl)-1,3-thiazole-4-carboxamide]
- activation at 0.8 µM: 30 to 50%

SMILES: Cc1ccc(-n2cc(-c3nc(C(=O)N(C(C)C)C4CCNCC4)cs3)cn2)cc1 [Compound 57, 2-[1-(4-methylphenyl)-1H-pyrazol-4-yl]-N-(piperidin-4-yl)-N-(propan-2-yl)-1,3-thiazole-4-carboxamide]
- activation at 0.8 µM: 30 to 50%

SMILES: CC(C)N(C(=O)c1csc(-c2cnn(-c3cccnc3)c2)n1)C1CCNCC1 [Compound 321, N-(piperidin-4-yl)-N-(propan-2-yl)-2-[1-(pyridin-3-yl)-1H-pyrazol-4-yl]-1,3-thiazole-4-carboxamide]
- activation at 0.8 µM: 30 to 50%
- increase in acidic vesicle formation: only a slight increase

SMILES: CC(C)N(C(=O)c1csc(-c2cnn(-c3cccnn3)c2)n1)[C@@H]1CCNC1 [Compound 332, N-(propan-2-yl)-2-[1-(pyridazin-3-yl)-1H-pyrazol-4-yl]-N-[(3R)-pyrrolidin-3-yl]-1,3-thiazole-4-carboxamide]
- acidic vesicle formation relative to a DMSO-treated control: only a slight increase
- increase in acidic vesicle formation: only a slight increase

SMILES: CCCN(C(=O)c1csc(-c2cnn(-c3ccccc3)c2)n1)[C@H]1CCNC1 [Compound 170, (S)-2-(1-phenyl-1H-pyrazol-4-yl)-N-propyl-N-(pyrrolidin-3-yl)thiazole-4-carboxamide hydrochloride]
- activation at 0.8 µM: 10 to 30%

SMILES: CCCN(C(=O)c1csc(-c2cnn(-c3ccccc3C(F)(F)F)c2)n1)[C@@H]1CCNC1 [Compound 83, N-propyl-N-[(3R)-pyrrolidin-3-yl]-2-{1-[2-(trifluoromethyl)phenyl]-1H-pyrazol-4-yl}-1,3-thiazole-4-carboxamide]
- activation at 0.8 µM: 30 to 50%

SMILES: CCCN(C(=O)c1csc(-c2cnc(-c3ccccc3)o2)n1)[C@H]1CCNC1 [Compound 35, 2-(2-phenyl-1,3-oxazol-5-yl)-N-propyl-N-[(3S)-pyrrolidin-3-yl]-1,3-thiazole-4-carboxamide]
- activation at 0.8 µM: 10 to 30%

SMILES: O=C(NCC1CCNCC1)c1ccc(-c2cnn(-c3ccccc3)c2)o1 [Compound 100, 5-(1-phenyl-1H-pyrazol-4-yl)-N-[(piperidin-4-yl)methyl]furan-2-carboxamide]
- activation at 0.8 µM: 30 to 50%

SMILES: CCCN(C(=O)c1cc(-c2cnn(-c3ccccc3)c2)cs1)[C@H]1CCNC1 [Compound 59, 4-(1-phenyl-1H-pyrazol-4-yl)-N-propyl-N-[(3S)-pyrrolidin-3-yl]thiophene-2-carboxamide]
- activation at 0.8 µM: 10 to 30%

SMILES: CC(C)N(C(=O)c1csc(-c2cnn(-c3ncccn3)c2)n1)C1CCNCC1 [Compound 329, N-(piperidin-4-yl)-N-(propan-2-yl)-2-[1-(pyrimidin-2-yl)-1H-pyrazol-4-yl]-1,3-thiazole-4-carboxamide]
- increase in acidic vesicle formation: only a slight increase
